# Assay results published in US6030997A, “Acid labile prodrugs” (priority 1998, dated 2000).
# Experiments:
# Fisher 344 rats = test: 7-day once daily repeated intravenous toxicity in Fisher 344 rats: clinical signs, mortality, body weight, necropsy; assay type: in vivo, rat (Fisher 344); details: i.v. once daily 7 days, ProGenta equimolar to 60 mg/kg Gentamicin or Gentamicin 60 mg/kg; particularly females; especially striking Day 10
# Protocol: All animals received 10 mg/liter of sodium bicarbonate in drinking water. All animals were allowed an additional 3-day recovery period. Final assessment of treatment effects was based on monitoring clinical signs, determinations of body weight, serum creatinine levels and urinary protein content. In addition, all animals were subjected to necropsy at termination of the study.
# BALB/c mice = test: Toxicity of daily intravenous injections in BALB/c mice (proteinuria by Dipstick, mortality, gross pathology); assay type: in vivo, mouse (BALB/c); details: day 3, Gentamicin 75 mg/kg i.v. daily
# kidney = details: rat, in vivo
# Protocol: 3.1 The potential intravenous toxicity of the test article ProGenta (in a dose equimolar to 60 mg/kg of Gentamicin, Example 1) following once daily repeated intravenous administrations during 7 days, was studied in a group of seven male and seven female Fisher 344 rats, in comparison to an identically treated and equally sized group treated with the control article Gentamicin (60 mg/kg), and an untreated control group comprising six male and six female rats. All animals received 10 mg/liter of sodium bicarbonate in drinking water. All animals were allowed an additional 3-day recovery period. Final assessment of treatment effects was based on monitoring clinical signs, determinations of body weight, serum creatinine levels and urinary protein content. In addition, all animals were subjected to necropsy at termination of the study.
# mice = details: i.v.; cited from earlier work
substance,measurement,setting,value
Gentamicin,weight gain,Fisher 344 rats,a relative reduction in normally expected weight gain
same,mortality,BALB/c mice,the two mice in the Gentamicin group died several hours after the injection
same,proteinuria,kidney,reached a peak value
same,urinary protein content,kidney,markedly increased
same,LD50,mice,75 mg/kg
